Source: ChEMBL document CHEMBL1124182, “Design, synthesis, and properties of (4S)-7-(4-amino-2-substituted-pyrrolidin-1-yl)quinolone-3-carboxylic acids” (J Med Chem, 1988)
≈ marks a conversion by molar mass, not a printed value.

Legend:
Acinetobacter = assay: In vitro Minimum inhibitory concentration against Acinetobacter CMX 669; type: functional; settings: Acinetobacter; read-out: MIC
Escherichia coli [1] = assay: In vitro Minimum inhibitory concentration against Escherichia coli Juhl; type: functional
Klebsiella pneumoniae = assay: In vitro Minimum inhibitory concentration against Klebsiella pneumoniae 8045; type: functional
[2] = (§1) Blood level was evaluated by a disk agar diffusion assay at 3.0 hh when administered at a peroral dose of 25 mg/kg; type: ADME, organism-based; set-up: dose 25 mg/kg, route oral; settings: mouse, po, read-out: Blood level
[3] = (§2) Blood level was evaluated by a disk agar diffusion assay at 0.5 hr when administered at a peroral dose of 25 mg/kg; type: ADME, organism-based; set-up: dose 25 mg/kg, route oral; settings: mouse, po, read-out: Blood level
[4] = (§3) Blood level was evaluated by a disk agar diffusion assay at 1.0 hr when administered at a peroral dose of 25 mg/kg; type: ADME, organism-based; set-up: dose 25 mg/kg, route oral; settings: mouse, po, read-out: Blood level
[5] = (§4) Blood level was evaluated by a disk agar diffusion assay at 2.0 hr when administered at a peroral dose of 25 mg/kg; type: ADME, organism-based; set-up: dose 25 mg/kg, route oral; settings: mouse, po, read-out: Blood level
Pseudomonas aeruginosa [6] = assay: In vitro Minimum inhibitory concentration against Pseudomonas aeruginosa 5007; type: functional
Pseudomonas aeruginosa [7] = assay: In vitro Minimum inhibitory concentration against Pseudomonas aeruginosa K799/WT; type: functional
[8] = tested on: Staphylococcus epidermidis; assay: In vitro Minimum inhibitory concentration against Staphylococcus epidermidis 3519; type: functional
Streptococcus agalactiae = assay: In vitro Minimum inhibitory concentration against Streptococcus agalactiae CMX 508; type: functional
Staphylococcus aureus [9] = assay: In vitro Minimum inhibitory concentration against Staphylococcus aureus 45; type: functional
Staphylococcus aureus [10] = assay: In vitro Minimum inhibitory concentration against Staphylococcus aureus A5177; type: functional
Staphylococcus aureus [11] = assay: In vitro Minimum inhibitory concentration against Staphylococcus aureus ATCC 6538P; type: functional
Streptococcus equinus = assay: In vitro Minimum inhibitory concentration against Streptococcus bovis A5169; type: functional
Enterococcus faecium = assay: In vitro Minimum inhibitory concentration against Streptococcus faecium ATCC 8043; type: functional
Mus musculus [12] = assay: (§5) In vivo efficacy against Staphylococcus aureus 10649, in mouse protection tests when administered perorally (po); type: functional
Mus musculus [13] = assay: (§6) In vivo efficacy against Staphylococcus aureus 10649, in mouse protection tests when administered subcutaneously (sc); type: functional
Streptococcus pyogenes = assay: In vitro Minimum inhibitory concentration against Streptococcus pyogenes 930; type: functional
Staphylococcus aureus [14] = assay: In vitro Minimum inhibitory concentration against Staphylococcus aureus CMX 686B; type: functional
Escherichia coli [15] = assay: Supercoiling inhibition assay using purified DNA gyrase isolated from Escherichia coli H560; type: functional; settings: read-out: I50
Mus musculus [16] = assay: as §1; type: functional; settings: route oral
Mus musculus [17] = assay: Blood level was evaluated by a disk agar diffusion assay at 6.0 hr when administered at a peroral dose of 25 mg/kg; type: functional; settings: route oral
Mus musculus [18] = assay: as §4; type: functional; settings: route oral
Mus musculus [19] = assay: as §2; type: functional; settings: route oral
Mus musculus [20] = assay: as §3; type: functional; settings: route oral
Mus musculus [21] = assay: Blood level was evaluated by a disk agar diffusion assay at 24.0 hr when administered at a peroral dose of 25 mg/kg; type: functional; settings: route oral
Mus musculus [22] = assay: In vivo efficacy against Escherichia coli Juhl, in mouse protection tests when administered perorally (po); type: functional
Mus musculus [23] = assay: In vivo efficacy against Escherichia coli Juhl, in mouse protection tests when administered subcutaneously (sc); type: functional
Staphylococcus aureus [24] = assay: as §5; type: functional
Staphylococcus aureus [25] = assay: as §6; type: functional
[26] = Partition coefficient (logP); type: physicochemical; settings: octanol/water
[27] = Compound was evaluated for the solubility in Ringer's buffer solution; type: ADME
[28] = Blood level was evaluated by a disk agar diffusion assay at 3.0 hh when administered at a peroral dose of 100 mg/kg; type: ADME, organism-based; set-up: dose 100 mg/kg, route oral; settings: mouse, po, read-out: Blood level

| SMILES | MIC (Acinetobacter) | MIC (Escherichia coli [1]) | MIC (Klebsiella pneumoniae) | MIC (Pseudomonas aeruginosa [6]) | MIC (Pseudomonas aeruginosa [7]) | MIC [8] | MIC (Streptococcus agalactiae) | MIC (Staphylococcus aureus [9]) | MIC (Staphylococcus aureus [10]) | MIC (Staphylococcus aureus [11]) | MIC (Streptococcus equinus) | MIC (Enterococcus faecium) | MIC (Streptococcus pyogenes) | MIC (Staphylococcus aureus [14]) | IC50 (Escherichia coli [15]) | also measured |
| --- | --- | --- | --- | --- | --- | --- | --- | --- | --- | --- | --- | --- | --- | --- | --- | --- |
| N[C@H]1CC(CF)N(c2nc3c(cc2F)c(=O)c(C(=O)O)cn3-c2ccc(F)cc2F)C1 (stereo not given in full) | 0.39 µg/mL (≈ 0.894 µM) | 0.1 µg/mL (≈ 0.229 µM) | 0.1 µg/mL (≈ 0.229 µM) | 0.78 µg/mL (≈ 1.79 µM) | 0.78 µg/mL (≈ 1.79 µM) | 0.2 µg/mL (≈ 0.458 µM) | 0.39 µg/mL (≈ 0.894 µM) | 0.1 µg/mL (≈ 0.229 µM) | 0.1 µg/mL (≈ 0.229 µM) | 0.05 µg/mL (≈ 0.115 µM) | 0.78 µg/mL (≈ 1.79 µM) | 0.2 µg/mL (≈ 0.458 µM) | 0.2 µg/mL (≈ 0.458 µM) | 0.05 µg/mL (≈ 0.115 µM) | 0.75 µg/mL (≈ 1.72 µM) | – |
| O=C(O)c1cn(C2CC2)c2cc(N3CCNCC3)c(F)cc2c1=O [CIPROFLOXACIN] | 0.39 µg/mL (≈ 1.18 µM) | – | 0.02 µg/mL (≈ 0.0604 µM) | 0.39 µg/mL (≈ 1.18 µM) | 0.2 µg/mL (≈ 0.604 µM) | 0.78 µg/mL (≈ 2.35 µM) | 0.78 µg/mL (≈ 2.35 µM) | 0.78 µg/mL (≈ 2.35 µM) | 0.39 µg/mL (≈ 1.18 µM) | 0.2 µg/mL (≈ 0.604 µM) | 1.56 µg/mL (≈ 4.71 µM) | 0.39 µg/mL (≈ 1.18 µM) | – | 0.39 µg/mL (≈ 1.18 µM) | 0.9 µg/mL (≈ 2.72 µM) | Blood level (Mus musculus [16]): 0.1 µg/mL; Blood level (Mus musculus [17]): 0 µg/mL; Blood level (Mus musculus [18]): 0.3 µg/mL; Blood level (Mus musculus [19]): 1.3 µg/mL; Blood level (Mus musculus [20]): 0.8 µg/mL; Blood level (Mus musculus [21]): 0 µg/mL; ED50 (Mus musculus [22]): 1.9 mg/kg; ED50 (Mus musculus [23]): 0.2 mg/kg; ED50 (Staphylococcus aureus [24]): 15.5 mg/kg; ED50 (Staphylococcus aureus [25]): 1.6 mg/kg |
| O=C(O)c1cn(-c2ccc(F)cc2F)c2nc(N3C[C@@H]4C[C@H]3CN4)c(F)cc2c1=O | 0.39 µg/mL (≈ 0.937 µM) | 0.05 µg/mL (≈ 0.12 µM) | 0.05 µg/mL (≈ 0.12 µM) | 0.39 µg/mL (≈ 0.937 µM) | 0.39 µg/mL (≈ 0.937 µM) | 0.39 µg/mL (≈ 0.937 µM) | 0.78 µg/mL (≈ 1.87 µM) | 0.78 µg/mL (≈ 1.87 µM) | 0.39 µg/mL (≈ 0.937 µM) | 0.1 µg/mL (≈ 0.24 µM) | 1.56 µg/mL (≈ 3.75 µM) | 0.39 µg/mL (≈ 0.937 µM) | 0.78 µg/mL (≈ 1.87 µM) | 0.2 µg/mL (≈ 0.48 µM) | – | – |
| O=C(O)c1cn(-c2ccc(F)cc2)c2cc(N3CCC[C@@H]3CO)c(F)cc2c1=O | 0.78 µg/mL (≈ 1.95 µM) | 0.78 µg/mL (≈ 1.95 µM) | 0.78 µg/mL (≈ 1.95 µM) | 3.1 µg/mL (≈ 7.74 µM) | 3.1 µg/mL (≈ 7.74 µM) | 0.39 µg/mL (≈ 0.974 µM) | 3.1 µg/mL (≈ 7.74 µM) | 0.39 µg/mL (≈ 0.974 µM) | 0.39 µg/mL (≈ 0.974 µM) | 0.1 µg/mL (≈ 0.25 µM) | 25 µg/mL (≈ 62.4 µM) | 3.1 µg/mL (≈ 7.74 µM) | 3.1 µg/mL (≈ 7.74 µM) | 0.1 µg/mL (≈ 0.25 µM) | – | – |
| NC1CCN(c2nc3c(cc2F)c(=O)c(C(=O)O)cn3-c2ccc(F)cc2F)C1 (stereo not given) [TOSUFLOXACIN] | 0.05 µg/mL (≈ 0.124 µM) | 0.02 µg/mL (≈ 0.0495 µM) | 0.01 µg/mL (≈ 0.0247 µM) | 0.78 µg/mL (≈ 1.93 µM) | 0.39 µg/mL (≈ 0.965 µM) | 0.1 µg/mL (≈ 0.247 µM) | 0.2 µg/mL (≈ 0.495 µM) | 0.05 µg/mL (≈ 0.124 µM) | 0.05 µg/mL (≈ 0.124 µM) | 0.02 µg/mL (≈ 0.0495 µM) | 0.78 µg/mL (≈ 1.93 µM) | 0.2 µg/mL (≈ 0.495 µM) | 0.1 µg/mL (≈ 0.247 µM) | 0.05 µg/mL (≈ 0.124 µM) | 0.4 µg/mL (≈ 0.989 µM) | logP [26]: -0.46; concentration at 3 h [28]: 1700 ng/mL; solubility ([27]; buffer): 8 µg/mL (≈ 19.8 µM) |

The next lines start with results.

| MIC (Acinetobacter) | MIC (Escherichia coli [1]) | MIC (Klebsiella pneumoniae) | MIC (Pseudomonas aeruginosa [6]) | MIC (Pseudomonas aeruginosa [7]) | MIC [8] | MIC (Streptococcus agalactiae) | MIC (Staphylococcus aureus [9]) | MIC (Staphylococcus aureus [10]) | MIC (Staphylococcus aureus [11]) | MIC (Streptococcus equinus) | MIC (Enterococcus faecium) | MIC (Streptococcus pyogenes) | MIC (Staphylococcus aureus [14]) | SMILES | IC50 (Escherichia coli [15]) | also measured |
| --- | --- | --- | --- | --- | --- | --- | --- | --- | --- | --- | --- | --- | --- | --- | --- | --- |
| 0.1 µg/mL (≈ 0.25 µM) | 0.02 µg/mL (≈ 0.0501 µM) | 0.01 µg/mL (≈ 0.025 µM) | 3.1 µg/mL (≈ 7.76 µM) | 0.78 µg/mL (≈ 1.95 µM) | 0.05 µg/mL (≈ 0.125 µM) | 0.2 µg/mL (≈ 0.501 µM) | 0.05 µg/mL (≈ 0.125 µM) | 0.05 µg/mL (≈ 0.125 µM) | 0.05 µg/mL (≈ 0.125 µM) | 0.2 µg/mL (≈ 0.501 µM) | 0.2 µg/mL (≈ 0.501 µM) | 0.2 µg/mL (≈ 0.501 µM) | 0.05 µg/mL (≈ 0.125 µM) | C[C@H]1C[C@H](N)CN1c1cc2c(cc1F)c(=O)c(C(=O)O)cn2-c1ccc(F)cc1 | – | concentration at 3 h [2]: 200 ng/mL; concentration at 0.5 h [3]: 1000 ng/mL; concentration at 1 h [4]: 800 ng/mL; concentration at 2 h [5]: 400 ng/mL; ED50 (Mus musculus [12]): 4.4 mg/kg; ED50 (Mus musculus [13]): 0.8 mg/kg |
| 0.39 µg/mL (≈ 0.939 µM) | 0.05 µg/mL (≈ 0.12 µM) | 0.05 µg/mL (≈ 0.12 µM) | 1.56 µg/mL (≈ 3.76 µM) | 0.39 µg/mL (≈ 0.939 µM) | 0.39 µg/mL (≈ 0.939 µM) | 0.78 µg/mL (≈ 1.88 µM) | 0.78 µg/mL (≈ 1.88 µM) | 0.39 µg/mL (≈ 0.939 µM) | 0.1 µg/mL (≈ 0.241 µM) | 1.56 µg/mL (≈ 3.76 µM) | 0.39 µg/mL (≈ 0.939 µM) | 0.78 µg/mL (≈ 1.88 µM) | 0.2 µg/mL (≈ 0.481 µM) | O=C(O)c1cn(-c2ccc(F)cc2F)c2cc(N3C[C@@H]4C[C@H]3CN4)c(F)cc2c1=O | – | – |
| 0.1 µg/mL (≈ 0.24 µM) | 0.05 µg/mL (≈ 0.12 µM) | 0.02 µg/mL (≈ 0.0479 µM) | 3.1 µg/mL (≈ 7.43 µM) | 0.39 µg/mL (≈ 0.934 µM) | 0.2 µg/mL (≈ 0.479 µM) | 0.1 µg/mL (≈ 0.24 µM) | 0.1 µg/mL (≈ 0.24 µM) | 0.2 µg/mL (≈ 0.479 µM) | 0.02 µg/mL (≈ 0.0479 µM) | 0.2 µg/mL (≈ 0.479 µM) | 0.1 µg/mL (≈ 0.24 µM) | 0.2 µg/mL (≈ 0.479 µM) | 0.05 µg/mL (≈ 0.12 µM) | C[C@H]1C[C@H](N)CN1c1cc2c(cc1F)c(=O)c(C(=O)O)cn2-c1ccc(F)cc1F | 0.9 µg/mL (≈ 2.16 µM) | logP [26]: 0.085; concentration at 3 h [2]: 1100 ng/mL; ED50 (Mus musculus [22]): 3.6 mg/kg; ED50 (Mus musculus [23]): 0.9 mg/kg; ED50 (Staphylococcus aureus [24]): 3.3 mg/kg; ED50 (Staphylococcus aureus [25]): < 0.5 mg/kg; solubility ([27]; Ringer's buffer solution, read-out: Solubility): 53 µg/mL (≈ 127 µM) |
